{"source": "paper PMC12751141", "about": "“Disrupting α-Synuclein–ClpP interaction restores mitochondrial function and attenuates neuropathology in Parkinson’s disease models” (Molecular Neurodegeneration, 2025)", "key": {"SH-SY5Y cells": {"tested_on": "SH-SY5Y cells", "assay": "Mitochondrial membrane potential (TMRM) in SH-SY5Y cells", "format": "cell-based", "conditions": "SH-SY5Y expressing Venus-αSyn, n = 8", "experimental": "Cells cultured on coverslips or 24-well plates were washed with DPBS and then incubated with 0.25 µM Tetramethylrhodamine, methyl ester (TMRM) (Invitrogen, T668), for 20 min at 37 °C. For cells cultured on coverslips, the images were visualized by microscope, and quantification of images was then carried out using NIH Fiji ImageJ software. At least 100 cells per group were counted in the analysis."}, "ClpP–αSyn interaction": {"tested_on": "ClpP–αSyn interaction", "assay": "ClpP–αSyn co-immunoprecipitation in iPSC-derived neurons", "format": "cell-based, human", "conditions": "A53T-αSyn neurons; 1 µM, five days; n = 4", "source_text": "PD iPS cells lines (αSyn A53T, NN0004337, donor) and its isogenic corrected control line (NN0004344) were obtained from RUCDR Infinite Biologics. The iPS cells were differentiated into dopaminergic neuron-enriched neuronal culture with the protocol described previously. Briefly, iPS cell colonies were disassociated with accutase (Invitrogen), plated onto 6-well plates pre-coated with 2.5% Matrigel (BD Biosciences) and allowed to reach 80% confluence in mTeSR medium (Stem Cell Technology). For the first 10 days, cells were treated with SB431542 (10 µM; Tocris Bioscience) and Noggin (100 ng/ml) in Neural Media (NM) with FGF2 ([…]) and EGF ([…]). NM media contained: Neurobasal and DMEM/F12 (1:1), B-27 Supplement Minus Vitamin A (50×, Invitrogen), N2 Supplement (100X, Invitrogen), GlutaMAX (Invitrogen, 100×), 100 units/ml penicillin and 100 µg/ml streptomycin (Fisher); for the next 4 days, cells were treated with human recombinant Sonic hedgehog (SHH, 200 ng/ml) in neuronal differentiation medium. […]\nCells or tissues were lysed in total lysis buffer (50mM Tris-HCl, pH 7.5, 150mM NaCl, 1% Triton X-100, and protease inhibitor). […] The beads with immuno-precipitates were pulled down at 4000 g and washed four times with total lysis buffer/in vitro interaction buffer in the presence of 0.1% Triton X-100 and were analyzed by western blot analysis. […]"}, "mThy1-hSNCA mice": {"tested_on": "mThy1-hSNCA mice", "assay": "Rotarod test in mThy1-hSNCA mice", "format": "in vivo, mouse", "conditions": "3 mg/kg/day s.c.; age of 10-month; n = 13–15 mice/group; vs TAT", "experimental": "C57BL/6 N-Tg (Thy1-SNCA)15Mjff/J (JAX: 017682) breeders (C57Bl/6NJ genetic background) were purchased from Jackson Laboratories. The mice were mated, bred, and genotyped in the animal facility of Case Western Reserve University. All mice were maintained at a 12-hour light/dark cycle (on 6 am, off 6 pm). All randomization and peptide treatments in mThy1-hSNCA mice were prepared by an experimenter not associated with the behavioral and neuropathology analysis. Only male mice were used in the study. mThy1-hSNCA transgenic mice and their age-matched WT littermates were implanted with a 28-day subcutaneous osmotic pump (Alzet, Cupertino CA, Model 2004) containing either TAT control peptide or CS2 peptide, which delivered the peptides at indicated rate (1 or 3 or 10 mg/kg/day). The pump was replaced once every four weeks. All mice were sacrificed at age of 10-month for neuropathology assessment.\nMice were trained for the accelerating test on Day 1–3. On Day 5, motor coordination was assessed in TAT or CS2 treated mThy1-hSNCA transgenic mice and their age-matched wild-type littermates at age of 10-month, by measuring latency on a rotarod in an accelerated program for 300 s. Body weights of mThy1-hSNCA mice and wild-type littermates were recorded throughout the study period.\nFig. 7 CS2 treatment is protective in mThy1-hSNCA mouse model of PD. […]"}}, "data": [{"smiles": "CC(C)[C@H](NC(=O)CNC(=O)CNC(=O)CCCCCNC(=O)[C@H](CCCNC(=N)N)NC(=O)[C@H](CCCNC(=N)N)NC(=O)[C@H](CCCNC(=N)N)NC(=O)[C@H](CCC(N)=O)NC(=O)[C@H](CCCNC(=N)N)NC(=O)[C@H](CCCNC(=N)N)NC(=O)[C@H](CCCCN)NC(=O)[C@H](CCCCN)NC(=O)[C@H](CCCNC(=N)N)NC(=O)CNC(=O)[C@@H](N)Cc1ccc(O)cc1)C(=O)N[C@H](C(=O)N[C@H](C(=O)N[C@@H](C)C(=O)O)[C@@H](C)O)C(C)C", "note": "[CS2, TAT-C6-GGVVTA]", "values": [{"measurement": "mitochondrial membrane potential", "setting": "SH-SY5Y cells", "result": "rescued upon CS2 treatment"}, {"measurement": "ClpP–αSyn interaction by co-IP", "setting": "ClpP–αSyn interaction", "result": "markedly reduced the ClpP–αSyn interaction"}, {"measurement": "motor coordination on rotarod (latency to fall)", "setting": "mThy1-hSNCA mice", "result": "enhanced motor coordination"}]}]}
